Measured values as given in patent US12214036B2, “Combination therapy comprising AXL/MER and PD-1/PD-L1 inhibitors” (Incyte Corporation, priority 2020, dated 2025).

Target: T1, AXL (Homo sapiens, UniProt P30530)
T1 construct: tumor cell lines expressing high levels of endogenous AXL; endogenous in cells; host or cells: H1299
T1 sequence (P30530 26-894): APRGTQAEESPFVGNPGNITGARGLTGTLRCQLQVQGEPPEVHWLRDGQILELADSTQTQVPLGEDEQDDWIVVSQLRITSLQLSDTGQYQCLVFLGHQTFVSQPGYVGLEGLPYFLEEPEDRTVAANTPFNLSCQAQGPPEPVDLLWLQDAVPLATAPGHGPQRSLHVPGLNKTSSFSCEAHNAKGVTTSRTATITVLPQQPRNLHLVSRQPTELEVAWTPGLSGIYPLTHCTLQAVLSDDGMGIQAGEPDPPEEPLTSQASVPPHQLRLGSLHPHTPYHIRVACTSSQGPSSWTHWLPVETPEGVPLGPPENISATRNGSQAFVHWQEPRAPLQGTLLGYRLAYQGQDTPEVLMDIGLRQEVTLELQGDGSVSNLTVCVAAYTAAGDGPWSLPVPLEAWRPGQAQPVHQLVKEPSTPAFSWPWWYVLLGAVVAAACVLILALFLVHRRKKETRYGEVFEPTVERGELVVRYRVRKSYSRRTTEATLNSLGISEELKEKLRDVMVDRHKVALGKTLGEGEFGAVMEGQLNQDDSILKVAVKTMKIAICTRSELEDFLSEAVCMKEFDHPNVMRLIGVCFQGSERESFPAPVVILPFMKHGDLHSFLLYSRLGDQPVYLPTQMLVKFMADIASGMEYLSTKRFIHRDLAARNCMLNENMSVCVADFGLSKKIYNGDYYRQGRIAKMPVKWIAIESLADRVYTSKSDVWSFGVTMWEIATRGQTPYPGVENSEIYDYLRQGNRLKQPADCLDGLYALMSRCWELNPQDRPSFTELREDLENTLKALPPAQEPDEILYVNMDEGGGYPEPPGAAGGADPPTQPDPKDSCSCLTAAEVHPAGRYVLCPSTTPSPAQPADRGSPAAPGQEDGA
Assay: pAXL inhibition assay in H1299 cells (ELISA)
Format: cell-based
Details: rhGAS6 stimulation, N=19 (FIG. 2)
Procedure: The ability of Compound 1 to modulate AXL activity was evaluated in tumor cell lines expressing high levels of endogenous AXL.
H1299 cells were plated (30,000 cells/well) in 96-well tissue-culture plates (Costar, Corning Incorporated, Corning, N.Y.) and incubated overnight at 37° C. with 5% CO2. Compound 1 at an appropriate concentration was added and incubated for 1 hour at 37° C. with 5% CO2. rhGAS6 (R&D Systems, Minneapolis, Minn.; #885-GSB) was added at 1 μg/mL to each well, and plates were incubated at 37° C. with 5% CO2 for 15 minutes. Cells were harvested and lysed in 110 μL of ice-cold lysis buffer (Cell Signaling Technology, Danvers, Mass.; #9803) with protease and phosphatase inhibitors (ThermoFisher Scientific; #78446) for 1 hour on ice and stored at −80° C. for ELISA. ELISA plates were prepared by incubating Greiner lumitrac high-binding plates with 8 μg/mL of anti-AXL antibody (R&D Systems; MAB154) overnight at room temperature. The plates were washed and blocked with phosphate buffered saline (PBS) with 0.1% BSA. Cell lysates were loaded onto ELISA plates and incubated 2 hours at room temperature. […] The plates were gently shaken for 15 minutes at room temperature and read on the PheraStar (BMG Labtech). […]

CC(C)C(=O)N1CCC(c2cc(-c3ccc(NC(=O)c4cn(C(C)C)c(=O)n(-c5ccccn5)c4=O)cc3)c3c(N)ncnn23)CC1 [Compound 1, N-(4-(4-Amino-7-(1-isobutyrylpiperidin-4-yl)pyrrolo[1,2-f][1,2,4]triazin-5-yl)phenyl)-1-isopropyl-2,4-dioxo-3-(pyridin-2-yl)-1,2,3,4-tetrahydropyrimidine-5-carboxamide]
IC50: 1.8 ± 0.63 nM
